In patent publication US4758566A, “2-(1-piperazinyl)-4-substituted phenylquinoline derivatives, processes for the preparation thereof, and pharmaceutical composition containing the same” (Dainippon Pharmaceutical Co., Ltd., priority 1984, dated 1988):
Where a name gives a salt, the structure may show the parent alone.

Key:
[1] = U.S. Pat. No. 4,237,135; cited from earlier work
[2] = U.S. Pat. No. 4,237,135; cited from earlier work; remark: listed apart in the source
[3] = U.S. Pat. No. 4,237,135; cited from earlier work; remark: listed apart in the source
[4] = tested on: ulceration induced by ethanol in rats; test: Effect on the ulceration induced by ethanol in rats (gastric cytoprotection activity), Test 1; type: in vivo, rat (male Wistar)
Procedure: Effect on the ulceration induced by ethanol in rats (gastric cytoprotection activity) This test was carried out according to the method of Robert [cf. […] Male Wistar rats weighing 190 g to 200 g were fasted for 24 hours and then given orally 1 ml of absolute ethanol. After 1 hour, the animals were sacrificed under ether anesthesia, and the stomachs were removed and cut along the greater curvature. The length (mm) of each lesion in the glandular portion was measured using a dissecting microscope (×12). The sum of the length (mm) of each lesion in a stomach was indicated as an ulcer index. The inhibitory rate was determined by comparing the ulcer index in drug-treated groups with that in control group. Test compounds were administered orally 30 minutes before the administration of ethanol. In the control group, a vehicle (a 0.5% tragacanth solution) was administered orally.

[5] = tested on: ulceration induced by exposure to stress (restraint and water immersion) in rats; test: Effect on the ulceration induced by exposure to stress (restraint and water immersion) in rats, Test 2; type: in vivo, rat (male Wistar); conditions: for inhibition in vivo at 10 mg/kg / Ulcer index: stress-induced ulcer
Procedure: Effect on the ulceration induced by exposure to stress (restraint and water immersion) in rats The effect evaluated by this test is considered to be fairly well correlative to inhibitory effect on gastric acid secretion. Male Wistar rats weighing about 200 g were used in groups of 5 animals each. According to the method of Takagi et al. [cf. Japan. […] After 20 hours, the animals were taken out from the water bath and sacrificed under ether anesthesia, and the stomachs were removed. The stomach was inflated with 13 ml of physiological saline and placed in a 5% formalin solution for 5 minutes. After washing with physiological saline, the stomach was cut along the greater curvature and the length (mm) of each lesion in the glandular portion was measured using a dissecting microscope (×12). The sum of the length (mm) of each lesion in a stomach was indicated as an ulcer index. The inhibitory rate was determined by comparing the ulcer index in drug-treated groups with that in control group. Test compounds were administered orally 30 minutes before the immersion. In the control group, a vehicle (a 0.5% tragacanth solution) was administered orally.

[6] = tested on: ulceration induced by pylorus-ligation (Shay ulcer) in rats; test: Effect on the ulceration induced by pylorus-ligation (Shay ulcer) in rats, Test 3; type: in vivo, rat (male Wistar); conditions: rat; for Ulcer index: index of 0 to 5
Procedure: Effect on the ulceration induced by pylorus-ligation (Shay ulcer) in rats […] The portion between pylorus and duodenum of each rat was ligated under ether anesthesia according to the method of Shay et al. […] Each of the animals was then allowed to stand abstained from food and water in a cage. After 18 hours, the animals were sacrificed under ether anesthesia, and the stomachs were removed and cut along the greater curvature. […] 0: no lesion 1: hemorrhage or erosion […] The inhibitory rate was determined by comparing the ulcer index in drug-treated groups with that in the control group. […] Test compounds were administered orally 30 minutes before the ligation. In the control group, a vehicle (a 0.5% tragacanth solution) was administered orally.

[7] = tested on: hypothermia induced by reserpine; test: Antireserpine activity (antagonistic effect on hypothermia induced by reserpine), Test 4; type: in vivo, mouse (male ddY); conditions: mouse
Procedure: Antireserpine activity (antagonistic effect on hypothermia induced by reserpine)
This test was carried out according to the method of Askew [cf. Life Sci., 2, 725 (1963)].
Male ddY mice weighing 22 g to 27 g were used in groups of 5 animals each. Test compounds were administered orally to the animals, and immediately 5 mg/kg of reserpine was injected intraperitoneally. Rectal temperature of each mouse was measured 4 hours later with a thermistor (Shibaura Electric, BMG III-130). The inhibitory rate was determined by comparing the fall of rectal temperature in drug-treated groups with that in control group. In the control group, a vehicle (a 0.5% tragacanth solution) was administered orally.

Male ddY mice = test: Acute toxicity, Test 5; type: in vivo, mouse (male ddY); conditions: 7 days; for Number of dead animals/number of used animals: mouse
From the text: Male ddY mice weighing 20 g to 25 g were used in groups of 10 animals each. Test compounds, dissolved or suspended in a 0.5% tragacanth solution, were orally administered at a prescribed dose to the animals.

[8] = ethanol-induced ulcer, rat, 10 mg/kg p.o.
[9] = po, 1 h, ethanol-induced ulcer, rat, 10 mg/kg p.o., read-out: Inhibitory rate
[10] = po, 20 h, rat, 10 mg/kg p.o., read-out: Inhibitory rate

Compound | Ulcer index [4, 8] | inhibition in vivo at 10 mg/kg [4, 9] | inhibition in vivo at 10 mg/kg [5, 10] | Ulcer index ([5]; rat, 10 mg/kg p.o.) | Inhibitory rate ([7]; 100 mg/kg p.o.) | other results
CCN1CCN(c2cc(-c3ccccc3)c3ccccc3n2)CC1 [2-(4-ethyl-1-piperazinyl)-4-phenylquinoline] |  |  |  |  |  | antireserpine activity [1]: have an antireserpine activity; inhibitory effect on spontaneous locomotor activity [2]: inhibitory effect on spontaneous locomotor activity; antitremorine activity [3]: have also antitremorine activity
Cl.Cl.OCCN1CCN(c2cc(-c3ccc(F)cc3)c3ccccc3n2)CC1 [A, 2-[4-(2-hydroxyethyl)-1-piperazinyl]-4-(4-fluorophenyl)quinoline dihydrochloride] | 9.8 ± 2.9 mm | 79.5% | 69.2% | 7.4 ± 3.6 mm | 65.5% | Ulcer index ([4]; ethanol-induced ulcer, rat, 5 mg/kg p.o.): 31.6 ± 11.3 mm; Ulcer index ([4]; ethanol-induced ulcer, rat, 20 mg/kg p.o.): 9.2 ± 4.1 mm; inhibition in vivo at 5 mg/kg ([4]; po, 1 h, ethanol-induced ulcer, rat, 5 mg/kg p.o., read-out: Inhibitory rate): 33.9%; inhibition in vivo at 20 mg/kg ([4]; po, 1 h, ethanol-induced ulcer, rat, 20 mg/kg p.o., read-out: Inhibitory rate): 80.8%; Inhibitory rate ([6]; Shay ulcer, 10 mg/kg p.o.): 33.3%; Ulcer index ([6]; Shay ulcer, 10 mg/kg p.o.): 2.4 ± 0.4; Inhibitory rate ([6]; Shay ulcer, 20 mg/kg p.o.): 44.4%; Ulcer index ([6]; Shay ulcer, 20 mg/kg p.o.): 2 ± 0.8; Inhibitory rate ([6]; Shay ulcer, 50 mg/kg p.o.): 61.1%; Ulcer index ([6]; Shay ulcer, 50 mg/kg p.o.): 1.4 ± 0.2; Inhibitory rate ([6]; Shay ulcer, 100 mg/kg p.o.): 66.7%; Ulcer index ([6]; Shay ulcer, 100 mg/kg p.o.): 1.2 ± 0.2; ED50 ([6]; po, 18 h, Shay ulcer, graphic method, read-out: ED50 (dose required to inhibit ulcer index by 50%)): 26.5 mg/kg; potency relative to cimetidine in preventive effect on Shay ulcer ([6]; p.o., vs cimetidine): about 10 times; Inhibitory rate ([7]; 50 mg/kg p.o.): 20.6%; death of mouse (in words) (Male ddY mice; 250 mg/kg p.o.): death of mouse was not observed; Number of dead animals/number of used animals (Male ddY mice; 250 mg/kg p.o.): 0/10; Number of dead animals/number of used animals (Male ddY mice; 500 mg/kg p.o.): 2/10; Number of dead animals/number of used animals (Male ddY mice; 1000 mg/kg p.o.): 5/10
O=C(O)/C=C\C(=O)O.O=C(O)/C=C\C(=O)O.OCCCN1CCN(c2cc(-c3ccc(F)cc3)c3ccccc3n2)CC1 [B, 2-[4-(3-hydroxypropyl)-1-piperazinyl]-4-(4-fluorophenyl)quinoline dimaleate] | 21.9 ± 12.1 mm | 69.2% | 61.7% | 7.4 ± 1.2 mm | 59.4% | 
Clc1ccc(-c2cc(N3CCNCC3)nc3ccccc23)cc1.O=C(O)/C=C\C(=O)O [C, 2-(1-piperazinyl)-4-(4-chlorophenyl)quinoline maleate] | 4.5 ± 3.7 mm | 87.4% | 65.6% | 8.5 ± 2.9 mm | 64.3% | 
CN/C(=N/CCSCc1nc[nH]c1C)NC#N [Cimetidine, reference compound] |  |  |  |  |  | inhibition in vivo at 100 mg/kg ([4]; Rattus norvegicus, po, 1 h, read-out: Inhibitory rate): 25.1%; Ulcer index ([4]; ethanol-induced ulcer, rat, 100 mg/kg p.o.): 23.9 ± 8.2 mm; protective effect on the ethanol-induced ulceration (in words) ([4]; rat, 100 mg/kg p.o.): did not exhibit any significant protective effect; inhibition in vivo at 20 mg/kg ([5]; Rattus norvegicus, po, 20 h, read-out: Inhibitory rate): 39.1%; preventive effect on the stress-induced ulceration (in words) ([5]; rat, 20 mg/kg p.o.): did not exhibit any significant effect; Ulcer index ([5]; rat, 20 mg/kg p.o.): 15.1 ± 2.9 mm; Inhibitory rate ([6]; Shay ulcer, 50 mg/kg p.o.): 0%; Ulcer index ([6]; Shay ulcer, 50 mg/kg p.o.): 3.3 ± 0.3; Inhibitory rate ([6]; Shay ulcer, 100 mg/kg p.o.): 9.1%; Ulcer index ([6]; Shay ulcer, 100 mg/kg p.o.): 3 ± 0.5; Inhibitory rate ([6]; Shay ulcer, 200 mg/kg p.o.): 42.4%; Ulcer index ([6]; Shay ulcer, 200 mg/kg p.o.): 1.9 ± 0.4; Inhibitory rate ([6]; Shay ulcer, 500 mg/kg p.o.): 75.8%; Ulcer index ([6]; Shay ulcer, 500 mg/kg p.o.): 0.8 ± 0.2
CCN1CCN(c2cc(-c3ccc(Cl)cc3)c3ccccc3n2)CC1.O=C(O)/C=C\C(=O)O.O=C(O)/C=C\C(=O)O [D, 2-(4-ethyl-1-piperazinyl)-4-(4-chlorophenyl)quinoline dimaleate] | 8.6 ± 4.5 mm | 89% | 54% | 13.4 ± 2.1 mm | 45.2% | 
Cc1ccc(-c2cc(N3CCN(CCO)CC3)nc3ccccc23)cc1.O=C(O)/C=C\C(=O)O.O=C(O)/C=C\C(=O)O [E, 2-[4-(2-hydroxyethyl)-1-piperazinyl]-4-(4-methylphenyl)quinoline dimaleate] | 12.0 ± 2.3 mm | 64.4% | 69.7% | 11.8 ± 4.6 mm | 51.3% | 
O=C(O)/C=C\C(=O)O.O=C(O)/C=C\C(=O)O.OCCN1CCN(c2cc(-c3ccc(C(F)(F)F)cc3)c3ccccc3n2)CC1 [F, 2-[4-(2-hydroxyethyl)-1-piperazinyl]-4-(4-trifluoromethylphenyl)quinoline dimaleate] | 6.7 ± 1.8 mm | 87.2% | 41.6% | 19.8 ± 2.0 mm |  | 
O=C(O)/C=C\C(=O)O.O=C(O)/C=C\C(=O)O.OCCN1CCN(c2cc(-c3ccc(Cl)cc3)c3ccccc3n2)CC1 [G, 2-[4-(2-hydroxyethyl)-1-piperazinyl]-4-(4-chlorophenyl)quinoline dimaleate] | 10.8 ± 6.3 mm | 76.1% | 36.4% | 18.5 ± 6.9 mm |  | 
FC(F)(F)c1cccc(-c2cc(N3CCNCC3)nc3ccccc23)c1.O=C(O)/C=C\C(=O)O.O=C(O)/C=C\C(=O)O [H, 2-(1-piperazinyl)-4-(3-trifluoromethylphenyl)quinoline dimaleate] | 7.1 ± 1.9 mm | 84.3% | 4.3% | 24.7 ± 3.6 mm |  | 
CCN1CCN(c2cc(-c3cccc(C(F)(F)F)c3)c3ccccc3n2)CC1.O=C(O)/C=C\C(=O)O.O=C(O)/C=C\C(=O)O [I, 2-(4-ethyl-1-piperazinyl)-4-(3-trifluoromethylphenyl)quinoline dimaleate] | 16.5 ± 3.9 mm | 63.5% | 20.1% | 27.1 ± 2.2 mm |  | 
CN(C)CCCN1c2ccccc2CCc2ccccc21 [Imipramine hydrochloride, reference compound] |  |  |  |  | 94.5% | Inhibitory rate ([7]; 10 mg/kg p.o.): 29.5%; Inhibitory rate ([7]; 30 mg/kg p.o.): 69.3%
O=C(O)/C=C\C(=O)O.O=C(O)/C=C\C(=O)O.OCCN1CCN(c2cc(-c3cccc(C(F)(F)F)c3)c3ccccc3n2)CC1 [J, 2-[4-(2-hydroxyethyl)-1-piperazinyl]-4-(3-trifluoromethylphenyl)quinoline dimaleate] | 9.0 ± 4.2 mm | 74.8% | -2.7% | 34.8 ± 3.9 mm |  | 
